From US20250236589A1, “THERAPEUTIC PHENETHYLAMINE COMPOSITIONS AND METHODS OF USE” (Cybin IRL Limited, priority 2022, published 2025)
pKi: −log10 of the molar value. “Also recorded” adds a separate entry of the source.

Legend:
[1] = PK profile in Wistar rats (plasma, brain, urine); assay type: in vivo, rat
Protocol: PK profile in Rats. To evaluate the full PK profile for I-1 in rats, plasma and brain pharmacokinetic and urinary excretion of I-1 in male Wistar rats after IV dose at 1 mg/kg and an oral (p.o.) dose at 5 mg/kg administration were determined. Plasma, brain, and urine samples were collected at specified time points after single dose administration of I-1 and quantification of I-1 in the samples was accomplished using LC-MS/MS. The pharmacokinetic parameters were determined as described above.

C57BL/6J mice = assay: HTR after oral or s.c. administration in C57BL/6J mice; assay type: in vivo, mouse
Protocol: In another experiment, C57BL/6J mice were moved to the behavior room 30 min prior to administration of the test compound. Test compound was administered either s.c. or p.o. at 1 to 10 mg/kg immediately prior to testing and HTR activity was assessed from 1-30 min and again from 120-150 by blind experienced testers in real-time.

[2] = PK in Sprague-Dawley rats (plasma, brain, CSF); assay type: in vivo, rat
Protocol: In another rat PK study, plasma, brain, and cerebrospinal fluid (CSF) distribution of I-1 was evaluated in Sprague-Dawley male rats after intravenous (IV) administration at 1 mg/kg. Plasma, brain, and CSF samples were collected at specified time points up to 8 hr postdose after single dose administration of I-1. Blood samples were collected via cardiac puncture and the animals were euthanized via CO2 inhalation after blood samples were collected. The CSF samples were collected via cisterna magna puncture with the brain tissue extracted after decapitation (N=4 animals per time point). The concentrations of compound I-1 in plasma, with K2EDTA as the anticoagulant, brain tissue, and CSF were determined by LC-MS/MS (LLOQ, 0.3 ng/mL). PK parameters for plasma, CSF, and brain tissue were calculated as described above.

human alpha2A receptor = human alpha2A receptor (Homo sapiens (Human), UniProt P08913); assay: alpha2A receptor binding ([3H]rauwolscine)
[3] = In vitro liver microsome stability (HLM); assay type: in vitro ADME; details: human, human liver microsomes, 0.5 mg/mL microsomes, NADPH, read-out: HLM, t1/2
Protocol: (§1) In vitro stability was determined in Human (HLM), Rat (RLM), Mouse (MsLM), and dog (DLM) Liver Microsomes. All liver microsomes were purchased from a commercial supplier (e.g. XenoTech). The reaction mixture, minus NADPH, was prepared as described below. The test compound was added into the reaction mixture at a final concentration of 1 μM or co-dosed with their deuterated analog(s) at 1 μM each. The control compound, testosterone, was run simultaneously with the test compound in a separate reaction. The reaction mixture (without cofactor) was equilibrated in a shaking water bath at 37° C. for 5 minutes. The reaction was initiated by the addition of the cofactor, and the mixture was incubated in a shaking water bath at 37° C. Aliquots (150 μL) were withdrawn at 0, 5, 10, 20, 30, 60, and 120 minutes. Test compound and testosterone samples were immediately combined with 150 μL of ice-cold acetonitrile (ACN) containing 0.1% formic acid and internal standard to terminate the reaction. The samples were then mixed and centrifuged to precipitate proteins. All samples were assayed by LC-MS/MS using electrospray ionization. […] Half-lives were calculated using GraphPad software, fitting to a single-phase exponential decay equation.

[4] = In vitro liver microsome stability (DLM); assay type: in vitro ADME; details: dog, dog liver microsomes, 0.5 mg/mL microsomes, NADPH, read-out: DLM, t1/2
Protocol: as §1

human alpha2C receptor = human alpha2C receptor (Homo sapiens (Human), UniProt P18825); assay: alpha2C receptor binding ([3H]rauwolscine)
Protocol: At 10 μM, I-1 inhibited 97% of radioligand bound to rat alpha2 receptors.

[5] = system: 5-HT7 (h) (subtype “a” or “b” not specified); assay: Off-target screen, radioligand displacement at 10 μM; assay type: binding, human; details: agonist radioligand
[6] = system: Calcium Channel L-Type, Phenylalkylamine, verapamil site (rat cortex); assay: as above; assay type: binding; details: antagonist radioligand
[7] = male, Wistar, rat, po, brain, p.o. 5 mg/kg
[8] = male, Wistar, rat, po, plasma, p.o. 5 mg/kg
[9] = male, Wistar, rat, brain, IV 1 mg/kg
[10] = male, Wistar, rat, plasma, IV 1 mg/kg
[11] = male, Sprague-Dawley, rat, CSF, IV 1 mg/kg
[12] = male, Sprague-Dawley, rat, brain, IV 1 mg/kg
[13] = male, Sprague-Dawley, rat, plasma, IV 1 mg/kg

Sequence of human alpha2A receptor (P08913 whole entry): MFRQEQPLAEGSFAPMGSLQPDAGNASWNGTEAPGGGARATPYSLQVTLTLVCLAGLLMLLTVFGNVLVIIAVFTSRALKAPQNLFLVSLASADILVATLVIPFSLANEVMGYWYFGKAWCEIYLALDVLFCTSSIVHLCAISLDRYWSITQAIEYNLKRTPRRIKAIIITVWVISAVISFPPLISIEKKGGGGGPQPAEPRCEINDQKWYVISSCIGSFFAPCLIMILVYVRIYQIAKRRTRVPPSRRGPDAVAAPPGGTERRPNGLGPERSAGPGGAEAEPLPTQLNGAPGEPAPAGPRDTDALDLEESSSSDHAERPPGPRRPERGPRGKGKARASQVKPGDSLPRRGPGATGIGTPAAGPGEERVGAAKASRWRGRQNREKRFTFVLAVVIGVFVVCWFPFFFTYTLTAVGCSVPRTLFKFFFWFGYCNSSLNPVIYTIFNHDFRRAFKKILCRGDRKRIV
Sequence of human alpha2C receptor (P18825 whole entry): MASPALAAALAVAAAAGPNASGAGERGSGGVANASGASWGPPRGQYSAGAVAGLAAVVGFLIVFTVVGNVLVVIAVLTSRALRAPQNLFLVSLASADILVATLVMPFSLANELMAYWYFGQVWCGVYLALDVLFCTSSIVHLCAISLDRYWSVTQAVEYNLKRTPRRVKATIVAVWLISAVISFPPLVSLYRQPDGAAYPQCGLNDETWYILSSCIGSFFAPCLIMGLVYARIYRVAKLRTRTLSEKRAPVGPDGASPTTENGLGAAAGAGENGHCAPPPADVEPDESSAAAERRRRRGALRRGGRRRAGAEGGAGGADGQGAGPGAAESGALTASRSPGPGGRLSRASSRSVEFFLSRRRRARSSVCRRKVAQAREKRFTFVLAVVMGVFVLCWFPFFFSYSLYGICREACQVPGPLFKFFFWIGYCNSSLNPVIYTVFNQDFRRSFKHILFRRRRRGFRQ

Structure (SMILES): COc1cc(SC(F)(F)F)c(OC)cc1CCN [Compound I-1, 2-(2,5-dimethoxy-4-((trifluoromethyl)thio)phenyl)ethan-1-amine]
- mean total amount recovered in urine ([1]; IV 1 mg/kg, n=2): 718 ng
- % F (AUCINF) ([1]; absolute oral bioavailability, p.o. 5 mg/kg): 19.1%
- Cmax, brain concentration ([1]; brain, IV 1 mg/kg): 890 ng/g
- T1/2 ([1]; brain, IV 1 mg/kg): 2.44 h
- Cmax, brain concentration ([1]; brain, p.o. 5 mg/kg): 402 ng/g
- T1/2 ([1]; brain, p.o. 5 mg/kg): 4.71 h
- total systemic clearance relative to total hepatic blood flow ([1]; hepatic blood flow 3.3 L/hr/kg): approximately 6 fold
- head twitching observed ([1]; immediately after IV 1 mg/kg, 1.5 hr after oral 5 mg/kg): mild to moderate-grade head twitching
- Tmax ([1]; male, Wistar, rat, brain, iv, 1 mg/kg, IV 1 mg/kg): 0.5 h
- Tmax ([1]; male, Wistar, rat, brain, po, 5 mg/kg, p.o. 5 mg/kg): 2 h
- Tmax ([1]; male, Wistar, rat, plasma, iv, 1 mg/kg, IV 1 mg/kg): 0.083 h
- AUC(0-inf) [1, 7]: 2880 ng·h/mL
- AUC(0-t) [1, 7]: 1860 ng·h/mL
- Cmax [1, 7]: 402 ng/mL
- MRT last [1, 7]: 3.3 h
- half-life [1, 7]: 4.71 h
- AUC(0-inf) [1, 8]: 49.7 ng·h/mL
- AUC(0-t) [1, 8]: 40.3 ng·h/mL
- Cmax [1, 8]: 18.6 ng/mL
- MRT last [1, 8]: 2.25 h
- half-life [1, 8]: 3.53 h
- CL renal ([1]; male, Wistar, rat, urine, IV 1 mg/kg, read-out: Renal clearance (converted)): 1.14 mL/min/kg
- dose excreted ([1]; male, Wistar, rat, urine, IV 1 mg/kg, read-out: percentage recovery in urine): 0.07%
- AUC(0-inf) [1, 9]: 3260 ng·h/mL
- AUC(0-t) [1, 9]: 2910 ng·h/mL
- Cmax [1, 9]: 890 ng/mL
- MRT last [1, 9]: 2.54 h
- half-life [1, 9]: 2.44 h
- AUC(0-inf) [1, 10]: 50.7 ng·h/mL
- AUC(0-t) [1, 10]: 42.2 ng·h/mL
- Cmax [1, 10]: 54.1 ng/mL
- MRT last [1, 10]: 0.62 h
- clearance [1, 10]: 328 mL/min/kg
- half-life [1, 10]: 0.78 h
- C0 ([1]; male, Wistar, rat, plasma, IV 1 mg/kg, extrapolated): 67.2 ng/mL
- Vd ([1]; male, Wistar, rat, plasma, IV 1 mg/kg, read-out: Vz): 22.2 L/kg
- Cl ([1]; plasma, IV 1 mg/kg): 328 mL/min/kg
- T1/2 ([1]; plasma, IV 1 mg/kg): 0.78 h
- T1/2 ([1]; plasma, p.o. 5 mg/kg): 3.53 h
- volume of distribution relative to total body water ([1]; total body water 0.7 L/kg): approximately 32 fold
- HTR after oral administration (C57BL/6J mice; 1, 3, 10 mg/kg p.o.): elicited the HTR; also recorded: dose-dependent increase in HTRs
- HTR duration versus DOI, oral (C57BL/6J mice; p.o.): greater duration than DOI
- Tlast ([2]; CSF, IV 1 mg/kg): 6 h
- CSF concentrations as share of brain concentrations ([2]; IV 1 mg/kg): 1.6%
- Tlast ([2]; brain, IV 1 mg/kg): 8 h
- total systemic clearance relative to total hepatic blood flow ([2]; hepatic blood flow 3.31 L/hr/kg): approximately 1.4 fold
- Kp ([2]; male, Sprague-Dawley, rat, CSF/plasma, IV 1 mg/kg, read-out: CSF concentrations as share of plasma): 0.2
- AUC(0-inf) [2, 11]: 51.4 ng·h/mL
- AUC(0-t) [2, 11]: 49.9 ng·h/mL
- Cmax [2, 11]: 48.7 ng/mL
- MRT inf [2, 11]: 1.51 h
- Tmax [2, 11]: 0.083 h
- half-life [2, 11]: 1.26 h
- AUC(0-inf) [2, 12]: 3280 ng·h/mL
- AUC(0-t) [2, 12]: 3220 ng·h/mL
- Cmax [2, 12]: 1490 ng/mL
- MRT inf [2, 12]: 1.98 h
- Tmax [2, 12]: 0.25 h
- half-life [2, 12]: 1.34 h
- AUC(0-inf) [2, 13]: 210 ng·h/mL
- AUC(0-t) [2, 13]: 207 ng·h/mL
- C0 [2, 13]: 330 ng/mL
- Cmax [2, 13]: 250 ng/mL
- MRT inf [2, 13]: 1.19 h
- Tmax [2, 13]: 0.083 h
- clearance [2, 13]: 79.5 mL/min/kg
- half-life [2, 13]: 1.53 h
- Vd ([2]; male, Sprague-Dawley, rat, plasma, IV 1 mg/kg, read-out: Vss): 5.67 L/kg
- Tlast ([2]; plasma, IV 1 mg/kg): 8 h
- volume of distribution relative to total body water ([2]; total body water 0.7 L/kg): approximately 8.1 fold
- pKi (human alpha2A receptor): 7.18
- half-life at 1 μM [3]: > 2 h
- half-life at 1 μM [4]: > 2 h
- pKi (human alpha2C receptor): 6.97

Structure (SMILES): COc1cc(CC(C)N)c(OC)cc1I (racemic) [DOI, (±)-2,5-dimethoxy-4-iodoamphetamine, reference compound]
- inhibition at 10 µM [5]: 58.4% inhibition at 10 μM
- inhibition at 10 µM [6]: 55.5% inhibition at 10 μM
